US11903955B2, “Methods of treating heart failure with reduced ejection fraction” (ASTRAZENECA AB, priority 2019, dated 2024)
Read-outs that look alike come from different tables or passages of the source.

What was measured:
[1] = system: patients with chronic heart failure with reduced ejection fraction (LVEF ≤40%); conditions: for NT-proBNP, between-treatment difference: baseline to 8 months; for decrease in NT-proBNP: between baseline and 8 months
Method: Data from all randomly assigned patients were included in the analyses of the primary and secondary outcomes, according to the intention-to-treat principle. Baseline characteristics were summarized as means and standard deviations, medians and inter-quartile ranges, or percentages. Longitudinal measures, such as glycated hemoglobin level (HbA1c) and body weight, were analyzed using mixed model for repeated measurements, and the least-squares mean differences between treatment groups were estimated, together with 95% confidence intervals. Time-to-event data were evaluated with the use of Kaplan-Meier estimates and Cox proportional hazards models, stratified by diabetes status, with history of heart failure hospitalization and treatment as fixed-effect factors (for the renal endpoint, baseline eGFR was included instead of history of heart failure hospitalization); hazard ratios, 95% confidence intervals, and two-sided P values were calculated with the use of the Cox models.

[2] = system: patients with chronic heart failure with reduced ejection fraction (LVEF ≤40%); conditions: for Any serious adverse event (including death), % of patients / Any serious adverse event (including death), No. of patients: safety population
Excerpt: All the patients provided written informed consent and entered a 14-day enrollment period during which the trial inclusion and exclusion criteria were checked and baseline information gathered, including findings from clinical examination and laboratory measurements. […] Investigators used an interactive voice or web response system to obtain treatment assignment. Randomization was stratified based on a diagnosis of type 2 diabetes, defined as either an established diagnosis or a HbA1c level of 6.5% or greater (≥48 mmol/mol) confirmed in a central laboratory at screening. Patients were evaluated at 14 days and 60 days after randomization, with a focus on assessment of heart failure and volume status, adverse events, and checking renal function and potassium. Further study visits took place at 4 months and at 4-month intervals thereafter. The protocol required that study drug be permanently discontinued if pregnancy or diabetic ketoacidosis occurred.
KCCQ total symptom score was analyzed as a composite rank-based endpoint, incorporating patient vital status at 8 months along with change in score from baseline to 8 months in surviving patients, using the rank analysis of covariance method, with a corresponding win ratio used to estimate the magnitude of treatment effect.^17 The consistency of the treatment effect among 14 prespecified subgroups were assessed. The prespecified safety analyses included: serious adverse events; adverse events associated with discontinuation of study treatment; “adverse events of interest” i.e., volume depletion, renal events, major hypoglycemic events, bone fractures, diabetic ketoacidosis, amputations; Fournier's gangrene; and laboratory findings of note. […] Fisher's exact test was used to compare rates of adverse events. Analyses were performed using Stata, version 15 (College Station Tex., USA) and R version 3.5.1 (R Foundation for Statistical Computing, Vienna, Austria).

[3] = system: patients with HFrEF without diabetes; conditions: individuals without diabetes at baseline
Excerpt: FIG. 17 describes incidence of new onset T2D (HbA1c ≥6.5%) measured at 2 consecutive study visits post-randomization or investigator-reported new T2D vs placebo patients with previously undiagnosed diabetes, i.e., HbA1c ≥6.5%
Patients also had measurement of a glycated hemoglobin (HbA1c) level in a central laboratory at visit 1 and again at visit 2 (the randomization visit), which occurred 14 (±7) days later. For this prespecified subgroup analysis, patients were categorized as having diabetes if there was a history of diabetes or the glycated hemoglobin was at least 6.5% (≥48 mmol/mol) at both visits 1 and 2. Patients with a glycated hemoglobin level <5.7% ([…]) at both visits 1 and 2 were considered to have a normal glycated hemoglobin. For the purposes of this study, patients with a glycated hemoglobin ≥5.7% and <6.5% were considered to have pre-diabetes. Id.

[4] = baseline to 8 month, dapagliflozin vs placebo

CCOc1ccc(Cc2cc([C@@H]3O[C@H](CO)[C@@H](O)[C@H](O)[C@H]3O)ccc2Cl)cc1 [Dapagliflozin, dapagliflozin]
Change in systolic BP ([1]; baseline to 8 month (Visit 6)): −1.92 ± 14.92 mmHg | Change in weight ([1]; baseline to 8 month (Visit 6)): -0.88 ± 3.86 kg | Change in HbA1c ([1]; baseline to 8 month (Visit 6), only patients with diabetes at baseline): −0.21 ± 1.14% | Systolic BP, between group difference (95% CI) [1, 4]: −1.41 (−2.31 to −0.52), p = 0.002 mmHg | Weight, between group difference (95% CI) [1, 4]: −0.98 (−1.22 to −0.74), p < 0.001 kg | HbA1c, between group difference (95% CI) ([1]; baseline to 8 month, dapagliflozin vs placebo, only patients with diabetes at baseline): −0.25 (−0.36 to −0.14), p < 0.001% | Change in potassium ([1]; in vivo): 0.07 ± 0.53 | Potassium, between group difference (95% CI) ([1]; in vivo): −0.02 (−0.05 to 0.01), p = 0.298 | NT-proBNP, between-treatment difference ([1]; participants with diabetes, dapagliflozin vs placebo): −333 (−562 to −104) pg/ml | decrease in NT-proBNP ([1]; participants with diabetes): 257 ± 2502 pg/mL | NT-proBNP, between-treatment difference ([1]; patients without diabetes, dapagliflozin vs placebo): −278 (−485 to −71) pg/ml | decrease in NT-proBNP ([1]; patients without diabetes): 144 ± 2286 pg/mL | Any serious adverse event (including death), % of patients ([2]; No T2DM (N = 1295)): (34.6) % | Any serious adverse event (including death), No. of patients ([2]; No T2DM (N = 1295)): 448 patients | Any serious adverse event (including death), % of patients ([2]; T2DM (N = 1073)): (41.7) % | Any serious adverse event (including death), No. of patients ([2]; T2DM (N = 1073)): 447 patients | Adverse events of interest: Fournier gangrene, % of patients ([2]; human, in vivo): (0) % | Adverse events of interest: Fournier gangrene, No. of patients ([2]; human, in vivo): 0 patients | Adverse events of interest: Fracture, % of patients ([2]; human, in vivo): (2.1) % | Amputation, No. (%) ([2]; human, in vivo): 13 (0.5) No. (%) | Diabetic Ketoacidosis, No. (%) ([2]; human, in vivo): 3 (0.1) No. (%) | Discontinuation of study drug due to adverse event, No. (%) ([2]; human, in vivo): 111 (4.7) No. (%) | Fournier gangrene, No. (%) ([2]; human, in vivo): 0 (0) No. (%) | Fracture, No. (%) ([2]; human, in vivo): 49 (2.1) No. (%) | Major hypoglycemia, No. (%) ([2]; human, in vivo): 4 (0.2) No. (%) | Serious adverse events related to volume depletion, patients (%) ([2]; human, in vivo): 29 dapagliflozin treated patients (1.2%) patients (%) | Serious renal adverse events, patients (%) ([2]; human, in vivo): 38 dapagliflozin treated patients (1.6%) patients (%) | Fournier gangrene, No. (%) ([2]; in vivo): No case | amputation, cases ([2]; in vivo): twelve | amputation, patients ([2]; in vivo): one | Any serious adverse event (including death), No. (%) ([2]; safety population n = 2368): 895 (37.8) No. (%) | new-onset diabetes, HR ([3]; dapagliflozin vs placebo (Cox)): 0.68 | reduction of new-onset diabetes ([3]; vs placebo): 32%
